Laboratory results published in patent US20030113814A1, “Identification of modulators of gpr55 activity” (priority 2002, published 2003).
Blank lines part the entries; values can stand above or below the molecule they belong to.

Assays:
[1] = system: control cells transformed with the vector p426GPD in combination with Gpa1/Gα13 and therefore lacking GPR55; assay: Yeast reporter gene assay in control cells transformed with vector p426GPD (lacking GPR55); type: cell-based, Saccharomyces cerevisiae; details: data not shown
From the text: A system of yeast strains MMY14-MMY24 has been described previously (Olesnicky et al, EMBO J. 18, 2756-2763, 1999, Brown et al, Yeast 16, 11-22, 2000). These strains contain a series of genetic modifications to enable coupling of heterologously expressed receptors to the expression of two reporter genes, via the endogenous yeast pheromone response signal transduction pathway. Importantly, the gene encoding the endogenous yeast pheromone receptor, STE2, has been deleted from these strains such that cells containing p426GPD-GPR55 will express GPR55 protein in place of Ste2 receptor protein. Furthermore, the gene encoding the G-protein α-subunit involved in the pheromone response, GPA1, has been deleted from these strains. To enable receptor coupling in strains MMY14-24, plasmid constructs encoding modified versions of GPA1 have been stably integrated into the yeast chromosome and are expressed in place of endogenous yeast GPA1. […]
In vivo assays of reporter gene induction were carried out by suspending yeast cells transformed as described above to a density of 0.02 OD600/ml in 200 μl SC-glucose (2%) medium lacking tryptophan, uracil and histidine. […] Plates were incubated for 24 hours at 30° C. without agitation, and absorbance at 570 nm was determined using a Spectrofluor microtitre plate reader (Tecan).

[2] = target: T1, EDG1 (Homo sapiens, UniProt P21453); assay: Yeast reporter gene assay with unrelated receptor; type: cell-based
T1 construct: expressed in transfected cells; host or cells: Saccharomyces cerevisiae reporter strain (inferred from context)

[3] = target: T2, Human GPR55 (Homo sapiens, UniProt Q9Y2T6); assay: Yeast FUS1-lacZ/FUS1-HIS3 reporter gene induction assay, yeast expressing p426GPD-GPR55 with Gpa1/Gα chimeras; type: cell-based
T2 construct: expressed in transfected cells; host or cells: Saccharomyces cerevisiae strains MMY14-MMY24 (STE2 and GPA1 deleted, Gpa1/Gα chimeras integrated)
From the text: These strains contain a series of genetic modifications to enable coupling of heterologously expressed receptors to the expression of two reporter genes, via the endogenous yeast pheromone response signal transduction pathway. Importantly, the gene encoding the endogenous yeast pheromone receptor, STE2, has been deleted from these strains such that cells containing p426GPD-GPR55 will express GPR55 protein in place of Ste2 receptor protein. Furthermore, the gene encoding the G-protein α-subunit involved in the pheromone response, GPA1, has been deleted from these strains. To enable receptor coupling in strains MMY14-24, plasmid constructs encoding modified versions of GPA1 have been stably integrated into the yeast chromosome and are expressed in place of endogenous yeast GPA1. […] Generally, the modifications made to Gpa1 facilitate coupling of heterologously expressed receptors to the yeast pheromone response pathway.
In vivo assays of reporter gene induction were carried out by suspending yeast cells transformed as described above to a density of 0.02 OD600/ml in 200 μl SC-glucose (2%) medium lacking tryptophan, uracil and histidine. This medium was supplemented with 10 mM 3-aminotriazole and the β-galactosidase (lacZ) substrate chlorophenolred-β-D-galactopyranoside (CPRG; Boehringer Mannheim) to a concentration of 0.1 mg/ml. […] To visualise the yellow to red colour change reaction occurring on degradation of CPRG due to β-galactosidase, the medium was buffered to pH 7 with 0.1 M sodium phosphate. The assay was conducted in flat-bottomed sterile 96-well microtitre plates. Plates were incubated for 24 hours at 30° C. without agitation, and absorbance at 570 nm was determined using a Spectrofluor microtitre plate reader (Tecan).

T2 sequence (Q9Y2T6 whole entry): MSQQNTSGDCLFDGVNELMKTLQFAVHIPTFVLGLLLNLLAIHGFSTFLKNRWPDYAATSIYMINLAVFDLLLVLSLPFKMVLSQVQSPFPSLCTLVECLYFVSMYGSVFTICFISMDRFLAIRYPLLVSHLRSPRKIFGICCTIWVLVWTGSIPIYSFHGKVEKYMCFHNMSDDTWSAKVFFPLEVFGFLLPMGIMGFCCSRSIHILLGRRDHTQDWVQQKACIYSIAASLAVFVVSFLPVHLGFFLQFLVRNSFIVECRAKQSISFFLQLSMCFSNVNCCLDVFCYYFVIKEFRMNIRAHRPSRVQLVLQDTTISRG
T1 sequence (P21453 whole entry): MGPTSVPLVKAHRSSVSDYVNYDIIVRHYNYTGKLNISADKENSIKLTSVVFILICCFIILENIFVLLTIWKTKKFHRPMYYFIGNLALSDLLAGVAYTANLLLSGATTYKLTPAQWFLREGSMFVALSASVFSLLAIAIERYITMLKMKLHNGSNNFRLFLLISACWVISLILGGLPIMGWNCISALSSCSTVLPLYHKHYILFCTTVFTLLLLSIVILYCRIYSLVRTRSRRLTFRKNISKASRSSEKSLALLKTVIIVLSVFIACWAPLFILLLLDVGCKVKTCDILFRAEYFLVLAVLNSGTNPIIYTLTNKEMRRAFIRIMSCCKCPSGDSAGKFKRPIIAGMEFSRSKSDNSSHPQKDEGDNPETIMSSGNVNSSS

SMILES: Cc1c(C(=O)NN2CCCCC2)nn(-c2ccc(Cl)cc2Cl)c1-c1ccc(I)cc1 [AM251, N-(piperidin-1-yl)-5-(4-iodophenyl)-1-(2,4-dichlorophenyl)-4-methyl-1H-pyrazole-3-carboxamide]
- increase in reporter gene activity in control cells [1]: not observed
- activation of unrelated receptors (EDG1) [2]: 1.3 fold over background
- agonism at GPR 55 ([3]; GPR 55 expressed in yeast containing Gpa1/GαI3, Gαi2 and Gαi3 chimeras (FIG. 3 legend)): acts as an agonist
- GPR55 activity in strain expressing Gpa1/Gα12 ([3]; Gpa1/Gα12): Activity has also been observed
- GPR55 activity in strains expressing Gpa1/Gαi2 or Gpa1/Gαi3 ([3]; Gpa1/Gαi2 or Gpa1/Gαi3 (FIG. 3)): weaker activities
- reporter gene activity ([3]; yeast co-expressing p426GPD-GPR55 and Gpa1/Gα13, response dependent on concentration (FIG. 3)): significant increase
- activation of GPR55 ([3]; yeast reporter assay): up to 60 fold over background

- activity at GPR55 ([3]; tested at GPR55 in yeast, data not shown): appeared active
SMILES: Cc1c(C(=O)NN2CCOCC2)nn(-c2ccc(Cl)cc2Cl)c1-c1ccc(I)cc1 [AM281, 1-(2,4-dichlorophenyl)-5-(4-iodophenyl)-4-methyl-N-4-morpholinyl-1H-pyrazole-3-carboxamide]
